According to US20060014740A1 (priority 2003, published 2006):
Where two headings read alike, the source gives them in different places.

How the values were obtained:
[1] = system: RH7777 rat hepatoma cells; assay: SRB cytotoxicity assay, RH7777 control cell line; format: cell-based; details: for IC50: Rattus norvegicus, RH7777, read-out: IC50 RH7777
Summary of the method: (§1)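 Read-out is protein-bound sulforhodamine B absorbance at 540 nm, reflecting cell number after 96 h of drug treatment. Compounds, taken from DMSO stocks and diluted in complete medium, spanned 0 to 100 μM.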

[2] = system: DU-145 human prostate cancer cells; assay: SRB cytotoxicity assay, DU-145; format: cell-based; details: 96 h
Summary of the method: as §1

[3] = system: PC-3 human prostate cancer cells; assay: SRB cytotoxicity assay, PC-3; format: cell-based; details: 96 h, read-out: IC50 PC-3
Summary of the method: as §1

[4] = system: LNCaP human prostate cancer cells; assay: SRB cytotoxicity assay, LNCaP; format: cell-based; details: 96 h, read-out: IC50 LNCaP
Summary of the method: as §1

[5] = system: PPC-1 human prostate cancer cells; assay: SRB cytotoxicity assay, PPC-1; format: cell-based; details: 96 h, read-out: IC50 PPC-1
Summary of the method: as §1

[6] = system: TSU-Pr1 human prostate cancer cells; assay: SRB cytotoxicity assay, TSU-Pr1; format: cell-based; details: 96 h
Summary of the method: as §1

[7] = system: human breast cancer cell line (MCF-7); assay: SRB cytotoxicity assay, MCF-7; format: cell-based; details: Homo sapiens, MCF7, read-out: IC50 MCF-7
Summary of the method: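 Cells plated at 1000–5000 per well by growth rate and exposed to compound (0 to 100 μM) for 96 h, three to five replicates. Cell number read by sulforhodamine B: TCA fixation, 0.4% SRB staining, absorbance at 540 nm.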

[8] = system: CaOv-3 human ovarian cancer cell line; assay: SRB cytotoxicity assay, CaOv-3; format: cell-based; details: Homo sapiens, Caov-3; Table 8
Protocol: (§2) For in vitro cytotoxicity screening, 1000 to 5000 cells were plated into each well of 96-well plates depending on growth rate, and exposed to different concentrations of a test compound for 96 h in three to five replicates. All the compounds were dissolved in dimethyl sulfoxide at 5 to 20 mM, and diluted to desired concentrations in complete culture medium. Cell numbers at the end of the drug treatment were measured by the SRB assay (Gududuru et al., “Synthesis and Biological Evaluation of Novel Cytotoxic Phospholipids for Prostate Cancer,” Bioorg. Med. Chem. Lett. 14:4919-4923 (2004); Rubinstein et at., “Comparison of in vitro Anticancer-Drug-Screening Data Generated with a Tetrazolium Assay Versus a Protein Assay Against a Diverse Panel of Human Tumor Cell Lines,” J. Naatl, Cancer Inst. 82:1113-1118 (1990), each of which is hereby incorporated by reference in its entirety). Briefly, the cells were fixed with 10% of trichloroacetic acid, stained with 0.4% SRB, and the absorbances at 540 nm was measured using a plate reader (DYNEX Technologies, Chantilly, Va.).
(§3) In vitro cytotoxicity assay was performed by the same sulforhodamine B (SRB) assay (described above). The compounds shown in Table 8 below where tested for activity against the breast cancer and ovarian cancer cell lines.

[9] = system: OVCAR-3 human ovarian cancer cell line; assay: SRB cytotoxicity assay, OVCAR-3; format: cell-based; details: Homo sapiens, OVCAR-3; Table 8
Protocol: as §2, §3

[10] = system: SKOv-3 human ovarian cancer cell line; assay: SRB cytotoxicity assay, SKOv-3; format: cell-based; details: Homo sapiens, SK-OV-3; Table 8
Protocol: as §2, §3

PC-3 cells = assay: Apoptosis sandwich ELISA (DNA-histone complex), PC-3; format: cell-based, human
Protocol: (§4) A sandwich ELISA (Roche, Mannheim, Germany) utilizing monoclonal antibodies specific for DNA and histones was used to quantify degree of apoptosis induced by the analogs after 72 h exposure. This assay measures DNA-histone complexes (mono- and oligonucleosomes) released into cytoplasm from the nucleus during apoptosis. RH7777 cells were employed because of nonspecific cytotoxicity of compound 4 in receptor-negative cells as well as receptor-positive prostate cancer cells.
(§5) From the LPL receptor mRNA expression studies (Table 2), it was evident that these cell lines serve as an excellent model system to explore the effects of LPL receptor. Given the structural similarity of SAPs to ceramide (and the known ability of ceramide to induce apoptosis), it was then determined whether the antiproliferative effects of thiazolidine analogs were mediated via apoptotla events. The ability of the analogs to induce apoptosis in LNCaP, PC-3, and RH7777 cells was examined using a quantitative sandwich ELISA that measures DNA-histone complex released during apoptosis. The enrichment factor calculated (as ratio of OD405 in treated and un-treated cells) provides a quantitative assessment of the degree of apoptosis induced. Initially, only two compounds (4 & 5) were used for this study. Apoptotic activity of analog (compound 4) was selective in prostate cancer cells despite nonselective cytotoxicity in RH7777 negative control cells (see Table 5 below). Analog compound 5 induced apoptosis in PC-3 and LNCaP cells, but to a lesser extent in PC-3 cells perhaps due to lower potency in this cell line.

LNCaP cells [11] = assay: Apoptosis sandwich ELISA (DNA-histone complex), LNCaP; format: cell-based, human
Protocol: as §4, §5

RH7777 cells = assay: Apoptosis sandwich ELISA (DNA-histone complex), RH7777; format: cell-based, rat
Protocol: as §4, §5

LNCaP cells [12] = assay: DNA fragmentation by agarose gel electrophoresis; format: cell-based, human; details: treated 24 to […], FIGS. 4A-B
Protocol: In FIG. 4B, the dose and exposure time are indicated for compound 5 as follows: lane 1, 100 bp DNA marker; lane 2, […] for 24 h; lane 3, 5 μM for 48 h; lane 4, 5 μM for 72 h; lane 5, 5 μM for 96 h; lane 6, 3 μM for 96 h; lane 7, 8 μM for 48 h; and lane 8, 8 μM for 72 h;

[13] = system: CHO cells (CHO-1, CHO-K1); assay: SRB cytotoxicity assay, CHO; format: cell-based; details: Table 9; negative control cell line; 96 h
Protocol: as §2, §3
(§6) Cells were exposed to a wide range of concentrations (0 to 100 μM) of the particular compound for 96 h in 96 well plates. Cells were fixed with 10% trichloroacetic acid, washed five times with water. The plates were air dried overnight and fixed cells were stained with SRB solution. The cellular protein-bound SRB was measured at 540 nm using a plate reader. Cell numbers at the end of the treatment were measured.
as §6, with “96-well” for “96 well”, “calculated as a percentage of untreated control.” for “measured.”

[14] = Example 10 table, 0 to 100 μM for 96 h
[15] = Homo sapiens, DU-145, read-out: IC50 DU-145, Example 10 table
[16] = Homo sapiens, LNCaP, Example 10 table
[17] = Homo sapiens, PPC-1, Example 10 table
[18] = Homo sapiens, TSU-Pr1, Example 10 table, read-out: IC50 TSU-Pr1
[19] = Table 8, breast cancer cell line

Compound	IC50 [1, 14] [µM]	IC50 [2, 15] [µM]	IC50 ([3]; Homo sapiens, Example 10 table) [µM]	IC50 [4, 16] [µM]	IC50 [5, 17] [µM]	IC50 [6, 18] [µM]	IC50 ([7]; Example 10 table, 96 h) [µM]	IC50 [7, 19] [µM]	IC50 [8] [µM]	IC50 [9] [µM]	IC50 [10] [µM]	Apoptosis enrichment factor (ratio of OD405 in treated and un-treated cells) (PC-3 cells; 2 μM for 72 h)	Apoptosis enrichment factor (ratio of OD405 in treated and un-treated cells) (PC-3 cells; 5 μM for 72 h)	Apoptosis enrichment factor (ratio of OD405 in treated and un-treated cells) (PC-3 cells; 10 μM for 72 h)	Apoptosis enrichment factor (ratio of OD405 in treated and un-treated cells) (LNCaP cells [11]; 2 μM for 72 h)	Apoptosis enrichment factor (ratio of OD405 in treated and un-treated cells) (LNCaP cells [11]; 5 μM for 72 h)	Apoptosis enrichment factor (ratio of OD405 in treated and un-treated cells) (LNCaP cells [11]; 10 μM for 72 h)	DNA fragmentation (apoptosis) (LNCaP cells [12])	also measured
CCCCCCCCCCCCCCNC(=O)[C@@H]1CSC(c2ccccc2)N1.Cl (mixture of isomers) [Compound 4-HCI, (2RS, 4R)-2-Phenylthiazolidine-4-carboxylic acid tetradecylamide Hydrochloride]	3.4	2.4	3	1.4	1.3	2	4.2	2.4	13.9	1.6	2.1	1.8	18.7	54.0	14.1	75.4	80.7	induce cell apoptosis	Fold less selective against RH7777 cell line than compound 5 [1]: 8 fold; Apoptosis enrichment factor (ratio of OD405 in treated and un-treated cells) (RH7777 cells; 2 μM for 72 h): 2.6; Apoptosis enrichment factor (ratio of OD405 in treated and un-treated cells) (RH7777 cells; 5 μM for 72 h): 3.2; Apoptosis enrichment factor (ratio of OD405 in treated and un-treated cells) (RH7777 cells; 10 μM for 72 h): 2.5
CCCCCCCCCCCCCCCCCCNC(=O)[C@@H]1CSC(c2ccccc2)N1.Cl (mixture of isomers) [Compound 5-HCI, (2RS, 4R)-2-Phenylthiazolidine-4-carboxylic acid octadecylamide Hydrochloride]	25.6	5.4	7.8	2.1	2	5	4.2	4.2	2.5	4.5	8.5	1.4	2.3	3.4	4.5	45.2	37.1	induce cell apoptosis	Apoptosis enrichment factor (ratio of OD405 in treated and un-treated cells) (PC-3 cells; 20 μM for 72 h): 12.7; Apoptosis enrichment factor (ratio of OD405 in treated and un-treated cells) (LNCaP cells [11]; 20 μM for 72 h): 26.1
CCCCCCCCCCCCCCCCCCNC(=O)[C@@H]1CSC(c2ccc(F)cc2)N1 (mixture of isomers) [Compound 19, (2RS, 4R)-2-(4-Fluoro-phenyl)-thiazolidine-4-carboxylic acid octadecylamide]	–	–	–	–	–	–	–	8.8	5.5	2.3	4.2	–	–	–	–	–	–	–	IC50 ([1]; Table 4, control cell line, 96 h): 17.4 µM; IC50 ([2]; Homo sapiens, DU-145, read-out: IC50 DU-145, Table 4): 5.7 µM; IC50 ([4]; Homo sapiens, LNCaP, Table 4): 1.9 µM; IC50 ([5]; Homo sapiens, PPC-1, Table 4): 2.1 µM; IC50 ([6]; Homo sapiens, TSU-Pr1, Table 4, read-out: IC50 TSU-Pr1): 5.4 µM; melting point: 65 °C
CCCCCCCCNC(=O)C(CO)NC(=O)CCCCCCC (stereo not shown) [315d]	–	–	–	–	–	–	–	–	–	–	–	–	–	–	–	–	–	–	IC50 ([2]; read-out: IC50 DU-145, Table 9): > 100 µM; IC50 ([3]; Table 9): 81.5 µM; IC50 ([4]; Table 9): > 100 µM; IC50 ([5]; Table 9): 81.2 µM; IC50 ([6]; Table 9, read-out: IC50 TSU): 93.8 µM; IC50 [13]: > 100 µM
